How the values were obtained:
NaV1.5 = molecular target: T1, NaV1.5 (Homo sapiens, UniProt Q14524); assay: two-electrode voltage clamp in Xenopus oocytes, […] inhibition at […]; type: cell-based
T1 construct: gene SCN5A

NaV1.4 = molecular target: T2, NaV1.4 (Rattus norvegicus, UniProt P15390); assay: two-electrode voltage clamp in Xenopus oocytes, concentration-response; also QPatch patch clamp; type: cell-based
T2 construct: gene Scn4a
T2 sequence (P15390 whole entry): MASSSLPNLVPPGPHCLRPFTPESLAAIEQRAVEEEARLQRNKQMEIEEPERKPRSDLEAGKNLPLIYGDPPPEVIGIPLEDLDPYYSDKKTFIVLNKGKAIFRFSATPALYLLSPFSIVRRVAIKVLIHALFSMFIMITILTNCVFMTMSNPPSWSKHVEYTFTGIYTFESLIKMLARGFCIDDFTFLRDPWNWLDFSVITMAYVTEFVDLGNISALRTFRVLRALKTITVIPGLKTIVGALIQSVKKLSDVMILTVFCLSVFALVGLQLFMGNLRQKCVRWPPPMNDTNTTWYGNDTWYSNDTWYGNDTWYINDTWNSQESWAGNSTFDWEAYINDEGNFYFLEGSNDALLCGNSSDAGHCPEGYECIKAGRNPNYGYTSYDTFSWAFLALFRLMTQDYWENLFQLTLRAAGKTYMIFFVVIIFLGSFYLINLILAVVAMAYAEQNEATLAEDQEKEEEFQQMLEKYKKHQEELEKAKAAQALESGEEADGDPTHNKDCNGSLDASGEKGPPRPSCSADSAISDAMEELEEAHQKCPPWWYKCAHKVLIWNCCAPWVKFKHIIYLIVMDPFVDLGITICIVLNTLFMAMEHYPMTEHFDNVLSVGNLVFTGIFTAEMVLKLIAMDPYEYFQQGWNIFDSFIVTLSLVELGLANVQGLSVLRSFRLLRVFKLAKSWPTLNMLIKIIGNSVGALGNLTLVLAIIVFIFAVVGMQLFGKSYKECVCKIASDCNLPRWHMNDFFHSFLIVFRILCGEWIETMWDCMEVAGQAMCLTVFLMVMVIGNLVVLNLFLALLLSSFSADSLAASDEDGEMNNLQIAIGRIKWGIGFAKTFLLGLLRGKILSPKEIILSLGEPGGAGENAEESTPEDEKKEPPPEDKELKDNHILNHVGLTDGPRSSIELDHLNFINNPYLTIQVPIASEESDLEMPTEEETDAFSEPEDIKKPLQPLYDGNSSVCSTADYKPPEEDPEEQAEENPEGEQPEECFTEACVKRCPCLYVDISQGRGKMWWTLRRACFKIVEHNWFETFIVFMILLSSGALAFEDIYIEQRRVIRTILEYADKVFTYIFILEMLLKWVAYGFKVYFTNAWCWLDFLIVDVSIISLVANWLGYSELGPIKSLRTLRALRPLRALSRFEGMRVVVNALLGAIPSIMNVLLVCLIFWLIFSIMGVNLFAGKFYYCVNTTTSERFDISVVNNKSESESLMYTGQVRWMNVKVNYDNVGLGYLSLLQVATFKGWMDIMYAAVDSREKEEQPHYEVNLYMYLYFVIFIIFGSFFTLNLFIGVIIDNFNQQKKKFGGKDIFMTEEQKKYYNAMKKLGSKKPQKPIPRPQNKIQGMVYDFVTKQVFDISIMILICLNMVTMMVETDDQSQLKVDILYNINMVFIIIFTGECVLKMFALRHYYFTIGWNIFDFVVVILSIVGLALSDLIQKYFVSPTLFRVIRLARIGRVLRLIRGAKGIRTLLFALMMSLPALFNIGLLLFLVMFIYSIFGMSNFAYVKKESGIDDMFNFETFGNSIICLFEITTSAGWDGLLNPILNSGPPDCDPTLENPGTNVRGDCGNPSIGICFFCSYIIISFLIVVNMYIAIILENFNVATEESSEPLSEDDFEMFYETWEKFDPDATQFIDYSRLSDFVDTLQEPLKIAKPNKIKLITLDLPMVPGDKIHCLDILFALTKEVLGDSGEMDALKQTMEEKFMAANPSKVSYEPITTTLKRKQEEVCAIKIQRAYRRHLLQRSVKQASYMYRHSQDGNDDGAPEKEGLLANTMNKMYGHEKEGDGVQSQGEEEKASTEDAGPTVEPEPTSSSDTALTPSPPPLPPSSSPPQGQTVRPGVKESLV

T1 sequence (Q14524 whole entry): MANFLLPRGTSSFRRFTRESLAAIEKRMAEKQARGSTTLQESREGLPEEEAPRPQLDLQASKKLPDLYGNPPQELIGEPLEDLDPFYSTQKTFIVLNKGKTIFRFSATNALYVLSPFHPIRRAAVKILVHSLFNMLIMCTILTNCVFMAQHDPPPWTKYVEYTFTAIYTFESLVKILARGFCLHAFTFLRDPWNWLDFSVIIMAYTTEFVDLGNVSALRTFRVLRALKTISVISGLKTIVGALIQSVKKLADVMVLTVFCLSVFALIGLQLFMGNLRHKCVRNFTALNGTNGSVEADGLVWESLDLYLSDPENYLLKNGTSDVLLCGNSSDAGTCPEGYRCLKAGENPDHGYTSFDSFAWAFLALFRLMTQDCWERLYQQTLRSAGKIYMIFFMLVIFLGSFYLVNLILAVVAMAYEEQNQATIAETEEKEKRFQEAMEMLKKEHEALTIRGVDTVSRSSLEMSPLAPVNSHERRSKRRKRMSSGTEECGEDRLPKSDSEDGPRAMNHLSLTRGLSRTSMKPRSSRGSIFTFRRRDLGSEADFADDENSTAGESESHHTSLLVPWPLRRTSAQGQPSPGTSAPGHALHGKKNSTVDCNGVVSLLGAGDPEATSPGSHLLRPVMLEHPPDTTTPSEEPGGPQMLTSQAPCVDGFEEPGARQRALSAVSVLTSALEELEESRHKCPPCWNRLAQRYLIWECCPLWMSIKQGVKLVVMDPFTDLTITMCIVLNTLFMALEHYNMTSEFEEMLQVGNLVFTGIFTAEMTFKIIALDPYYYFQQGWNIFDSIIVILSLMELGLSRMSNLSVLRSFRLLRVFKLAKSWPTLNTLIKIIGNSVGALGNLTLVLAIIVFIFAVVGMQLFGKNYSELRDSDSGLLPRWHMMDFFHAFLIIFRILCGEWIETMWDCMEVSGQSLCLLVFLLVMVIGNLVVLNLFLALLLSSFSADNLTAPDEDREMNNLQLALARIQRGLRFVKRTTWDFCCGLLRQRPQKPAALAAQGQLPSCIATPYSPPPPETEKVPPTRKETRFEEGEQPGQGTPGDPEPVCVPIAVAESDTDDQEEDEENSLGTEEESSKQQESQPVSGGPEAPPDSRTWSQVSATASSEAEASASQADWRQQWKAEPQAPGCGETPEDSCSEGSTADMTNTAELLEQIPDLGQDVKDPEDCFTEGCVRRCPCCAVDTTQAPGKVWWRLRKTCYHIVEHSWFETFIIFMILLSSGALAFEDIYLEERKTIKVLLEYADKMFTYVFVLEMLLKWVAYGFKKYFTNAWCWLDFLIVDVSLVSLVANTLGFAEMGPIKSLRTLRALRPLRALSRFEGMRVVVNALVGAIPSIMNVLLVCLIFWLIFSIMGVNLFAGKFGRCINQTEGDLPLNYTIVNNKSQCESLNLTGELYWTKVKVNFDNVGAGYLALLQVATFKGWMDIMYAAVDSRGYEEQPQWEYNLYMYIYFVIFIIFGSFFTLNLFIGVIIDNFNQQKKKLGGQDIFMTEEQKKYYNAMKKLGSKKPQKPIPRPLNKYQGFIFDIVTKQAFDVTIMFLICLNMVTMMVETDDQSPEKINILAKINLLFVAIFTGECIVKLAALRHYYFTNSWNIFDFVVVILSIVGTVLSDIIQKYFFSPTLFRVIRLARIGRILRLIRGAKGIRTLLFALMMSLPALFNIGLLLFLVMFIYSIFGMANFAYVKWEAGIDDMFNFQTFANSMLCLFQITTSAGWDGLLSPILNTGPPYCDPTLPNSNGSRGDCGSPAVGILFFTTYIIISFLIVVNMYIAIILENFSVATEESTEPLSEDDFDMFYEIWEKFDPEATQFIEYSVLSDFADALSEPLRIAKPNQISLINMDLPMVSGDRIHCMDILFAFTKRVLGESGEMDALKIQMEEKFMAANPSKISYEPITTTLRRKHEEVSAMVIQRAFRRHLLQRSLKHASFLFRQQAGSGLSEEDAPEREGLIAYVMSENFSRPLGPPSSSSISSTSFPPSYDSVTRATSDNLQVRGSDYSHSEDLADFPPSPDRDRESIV

Nc1nc(-c2cccc(NC(=O)c3c[nH]c4ccccc34)c2)c[nH]1 [compound 9, Compound 9]
inhibition at 1 µM (NaV1.5): 19.6 ± 1.3%
IC50 (NaV1.4): 3.5 ± 0.9 µM

Source: paper PMC4012458, “Action of Clathrodin and Analogues on Voltage-Gated Sodium Channels” (Marine Drugs, 2014)
